US20100137313A1 (ASTRAZENECA AB, priority 2008, published 2010)

molecular target: S. pneumoniae Topoisomerase IV ATPase (ParE) (Streptococcus pneumoniae serotype 4, UniProt Q59961); assay: S. pneumoniae Topoisomerase IV ATPase inhibition; format: biochemical; conditions: values marked * are an average of two or more data points, read-out: % Inh (13 μM) of S. pneumoniae Topoisomerase IV ATPase
Method: S. pneumoniae Topoisomerase IV ATPase Inhibition Activity: Compounds may be tested for inhibition of S. pneumoniae ParE ATPase activity using an ammonium molybdate/malachite green-based phosphate detection assay (Lanzetta, P. A., L. J. Alvarez, P. S. Reinach, and O. A. Candia, 1979, 100: 95-97). Assays are performed in multiwell plates in 30 μl reactions containing: 20 mM Tris buffer pH 8.0, 50 mM ammonium acetate, 8.0 mM magnesium chloride, 0.5 mM ethylenediaminetetraacetic acid, 5% glycerol, 5 mM 1,4-Dithio-DL-threitol, 0.005% Brij-35, 5 μg/ml sheared salmon sperm DNA, 1.25 nM S. pneumoniae ParE, 160 μM ATP, and test compound in dimethylsulfoxide. Reactions are quenched with 30 μl of ammonium molybdate/malachite green detection reagent containing 1.2 mM malachite green hydrochloride, 8.5 mM ammonium molybdate tetrahydrate, and 1 M hydrochloric acid. Plates are read in an absorbance plate reader at 650 nm and percent inhibition values are calculated using dimethylsulfoxide (2%)-containing reactions as 0% inhibition and EDTA-containing ([…]) reactions as 100% inhibition controls. An IC50 measurement of compound potency for each compound can be determined from reactions performed in the presence of 10 different compound concentrations.
Many of the compounds of the invention were tested in an assay substantially similar to the assays described above for measuring the inhibition of E.coli GyrB ATPase, E. coli Topoisomerase IV ATPase, S. aureus GyrB ATPase, and S. pneumoniae Topoisomerase IV ATPase, and had IC50 values of <200 μM in one or more assays.

S. pneumoniae Topoisomerase IV ATPase (ParE), sequence (Q59961 whole entry): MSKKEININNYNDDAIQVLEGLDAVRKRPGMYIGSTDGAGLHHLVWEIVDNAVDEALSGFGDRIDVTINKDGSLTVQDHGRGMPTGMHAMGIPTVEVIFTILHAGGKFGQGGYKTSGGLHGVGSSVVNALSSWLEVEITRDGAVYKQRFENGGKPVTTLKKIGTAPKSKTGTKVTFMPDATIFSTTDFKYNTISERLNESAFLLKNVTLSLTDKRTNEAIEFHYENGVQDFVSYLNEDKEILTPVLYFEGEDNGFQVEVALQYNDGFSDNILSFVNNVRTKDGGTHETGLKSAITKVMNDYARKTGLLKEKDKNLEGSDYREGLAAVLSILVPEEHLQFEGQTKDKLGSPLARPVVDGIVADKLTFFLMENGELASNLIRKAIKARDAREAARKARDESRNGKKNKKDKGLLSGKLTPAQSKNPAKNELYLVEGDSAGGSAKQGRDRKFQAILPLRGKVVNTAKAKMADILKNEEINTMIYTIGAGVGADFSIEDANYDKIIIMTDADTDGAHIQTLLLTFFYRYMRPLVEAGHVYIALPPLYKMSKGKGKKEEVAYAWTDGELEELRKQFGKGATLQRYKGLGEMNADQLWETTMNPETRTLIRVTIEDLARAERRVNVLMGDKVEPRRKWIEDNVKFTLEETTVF

In order of rising inhibition at 13 µM:
1. CCOC(=O)c1cncc(-c2cnc(Nc3ccc(F)c(Cl)c3)nc2N2CCCCC2)c1 [Example 152, ethyl 5-(2-(3-chloro-4-fluorophenylamino)-4-(piperidin-1-yl)pyrimidin-5-yl)nicotinate]  0.54%
2. CCCNc1nc(Nc2ccc(F)c(Cl)c2)ncc1-c1cncc(C(=O)OCC)c1 [Example 90, 5-[2-(3-Chloro-4-fluoro-phenylamino)-4-propylamino-pyrimidin-5-yl]-nicotinic acid ethyl ester]  24.6%
3. COc1cc(Nc2ncc(-c3cncc(C(=O)O)c3)c(N3CCOCC3)n2)cc(-n2nnnc2C)c1 [Example 445]  34%
4. CCOC(=O)c1cncc(-c2cnc(Nc3ccc(F)c(Cl)c3)nc2N2CCN(CCOC)CC2)c1 [Example 150, ethyl 5-(2-(3-chloro-4-fluorophenylamino)-4-(4-(2-methoxyethyl)piperazin-1-yl)pyrimidin-5-yl)nicotinate]  53.3%
5. CCOC(=O)c1cncc(-c2cnc(Nc3ccc(F)c(Cl)c3)nc2NCc2cccnc2)c1 [Example 96, 5-{2-(3-Chloro-4-fluoro-phenylamino)-4-[(pyridin-3-ylmethyl)-amino]-pyrimidin-5-yl}-nicotinic acid ethyl ester]  62.2%
6. Fc1ccc(Nc2ncc(-c3cncnc3)c(N3CCC(N4CCOCC4)CC3)n2)cc1Cl [Example 62, N-(3-chloro-4-fluorophenyl)-4-(4-morpholin-4-ylpiperidin-1-yl)-5-pyrimidin-5-ylpyrimidin-2-amine]  71%
7. Cc1cc(C(F)(F)F)nn1-c1nc(Nc2ccc(F)c(Cl)c2)ncc1-c1cccc(/C=C/C(=O)O)c1 [Example 322, (2E)-3-(3-{2-[(3-chloro-4-fluorophenyl)amino]-4-[5-methyl-3-(trifluoromethyl)-1H-pyrazol-1-yl]pyrimidin-5-yl}phenyl)prop-2-enoic acid]  75%
8. Cn1cncc1CNc1nc(Nc2ccc(F)c(Cl)c2)ncc1-c1cccc(/C=C/C(=O)O)c1 [Example 296, (E)-3-(3-(2-(3-chloro-4-fluorophenylamino)-4-((1-methyl-1H-imidazol-5-yl)methylamino)pyrimidin-5-yl)phenyl)acrylic acid]  77.6%
9. CCCNc1nc(Nc2ccc(F)c(Cl)c2)ncc1-c1cncc(C(=O)O)c1 [Example 218, 5-[2-(3-Chloro-4-fluoro-phenylamino)-4-propylamino-pyrimidin-5-yl]-nicotinic acid]  80.9%
10. CC(C)(C)OC(=O)NCCNc1nc(Nc2ccc(F)c(Cl)c2)ncc1-c1cncc(C(=O)O)c1 [Example 225, 5-[4-(2-tert-Butoxycarbonylamino-ethylamino)-2-(3-chloro-4-fluoro-phenylamino)-pyrimidin-5-yl]-nicotinic acid]  81.1%
11. O=C(O)/C=C/c1cccc(-c2cnc(Nc3ccc(F)c(Cl)c3)nc2N2CCOC(CO)C2)c1 (stereo not shown) [Example 1059]  85%
12. Cc1cc(C)cc(Nc2ncc(-c3cccc(/C=C/C(=O)O)c3)c(N3CCOCC3)n2)c1 [Example 405, (E)-3-{3-[2-(3,5-Dimethyl-phenylamino)-4-morpholin-4-yl-pyrimidin-5-yl]-phenyl}-acrylic acid]  85%
13. Fc1ccc(Nc2ncc(-c3cncnc3)c(-n3nnc4ccccc43)n2)cc1Cl [Example 89, 4-(1H-benzotriazol-1-yl)-N-(3-chloro-4-fluorophenyl)-5,5′-bipyrimidin-2-amine]  85.3%
14. CN1CCN(CCNc2nc(Nc3ccc(F)c(Cl)c3)ncc2-c2cncc(C(=O)O)c2)CC1 [Example 263, 5-(2-[(3-chloro-4-fluorophenyl)amino]-4-{[2-(4-methylpiperazin-1-yl)ethyl]amino}pyrimidin-5-yl)pyridine-3-carboxylate acid]  86.2%
15. O=C(O)c1ccc(-c2cnc(Nc3ccc(F)c(Cl)c3)nc2-n2ccnc2)s1 [Example 1111, 5-[2-[(3-chloro-4-fluorophenyl)-amino]-4-imidazol-1-ylpyrimidin-5-yl]thiophene-2-carboxylic acid]  88%
16. CN(C)CCCNc1nc(Nc2ccc(F)c(Cl)c2)ncc1-c1cncnc1 [Example 32, N^2-(3-chloro-4-fluorophenyl)-N^4-[3-(dimethylamino)propyl]-5,5′-bipyrimidine-2,4-diamine]  91.1%
17. O=C(O)/C=C/c1cccc(-c2cnc(Nc3ccc(F)c(Cl)c3)nc2-n2nc(C(F)F)cc2C(F)F)c1 [Example 564, (2E)-3-(3-{4-[3,5-bis(difluoromethyl)-1H-pyrazol-1-yl]-2-[(3-chloro-4-fluorophenyl)amino]pyrimidin-5-yl}phenyl)prop-2-enoic acid]  92%
18. COc1ncc(-c2cnc(Nc3cccc(C(N)=O)c3)nc2-n2ccc(C(F)(F)F)n2)cc1C(=O)O [Example 722, 5-{2-[(3-carbamoylphenyl)amino]-4-[3-(trifluoromethyl)-1H-pyrazol-1-yl]pyrimidin-5-yl}-2-methoxypyridine-3-carboxylic acid]  93%
19. COc1cc(Nc2ncc(-c3cnc(OCCCS(C)(=O)=O)c(C(=O)O)c3)c(-n3ccc(C(F)(F)F)n3)n2)cc(OC)c1 [Example 968, 5-(2-(3,5-dimethoxyphenylamino)-4-(3-(trifluoromethyl)-1H-pyrazol-1-yl)pyrimidin-5-yl)-2-(3-(mehtylsulfonyl)propoxy)nicotinic acid]  94%
20. CCN(CC)S(=O)(=O)c1cncc(-c2cnc(Nc3ccc(F)c(Cl)c3)nc2-n2nc(C(F)(F)F)cc2C)c1 [Example 1034]  96%
21. O=C(O)/C=C/c1cccc(-c2cnc(Nc3ccc(F)c(CO)c3)nc2N2CCOCC2)c1 [Example 516, (2E)-3-{3-[2-{[4-fluoro-3-(hydroxymethyl)phenyl]amino}-4-(morpholin-4-yl)pyrimidin-5-yl]phenyl}prop-2-enoic acid]  98%
22. O=C(O)CCC(=O)Nc1cccc(-c2cnc(Nc3ccc(F)c(Cl)c3)nc2N2CCOCC2)c1 [Example 482, 4-[(3-{2-[(3-chloro-4-fluorophenyl)amino]-4-(morpholin-4-yl)pyrimidin-5-yl}phenyl)amino]-4-oxobutanoic acid]  99%
23. Cc1cc(C(F)(F)F)nn1-c1nc(Nc2cc(F)cc(C#N)c2)ncc1-c1cncc(C(=O)O)c1 [Example 1121, 5-(2-(3-cyano-5-fluorophenylamino)-4-(5-methyl-3-(trifluoromethyl)-1H-pyrazol-1-yl)pyrimidin-5-yl)nicotinic acid]  99%
24. CC(=O)c1cccc(Nc2ncc(-c3cccc(/C=C/C(=O)O)c3)c(-n3nc(C(F)(F)F)cc3C)n2)c1 [Example 689, (2E)-3-(3-{2-[(3-acetylphenyl)amino]-4-[5-methyl-3-(trifluoromethyl)-1H-pyrazol-1-yl]pyrimidin-5-yl}phenyl)prop-2-enoic acid]  99%
25. COc1cc(C)cc(Nc2ncc(-c3cnc(OC)c(C(=O)O)c3)c(-n3ccc(C(F)(F)F)n3)n2)c1 [Example 760]  100%
26. Cc1cc(C(F)(F)F)nn1-c1nc(Nc2cc(F)cc(F)c2)ncc1-c1cncc(C(=O)O)c1 [Example 640, 5-{2-[(3,5-difluorophenyl)amino]-4-[5-methyl-3-(trifluoromethyl)-1H-pyrazol-1-yl]pyrimidin-5-yl}pyridine-3-carboxylic acid]  100%
27. CCS(=O)(=O)NC(=O)c1cc(-c2cnc(Nc3cc(OC)cc(OC)c3)nc2-n2nc(C(F)(F)F)cc2C)cnc1OC [Example 815, 5-{2-[(3,5-dimethoxyphenyl)amino]-4-[5-methyl-3-(trifluoromethyl)-1H-pyrazol-1-yl]pyrimidin-5-yl}-N-(ethylsulfonyl)-2-methoxypyridine-3-carboxamide]  100%
28. CC(=O)Nc1cc(C(=O)O)cc(-c2cnc(Nc3ccc(F)c(Cl)c3)nc2-n2ccc(C(F)(F)F)n2)c1 [Example 1150, 3-acetamido-5-(2-(3-chloro-4-fluorophenylamino)-4-(3-(trifluoromethyl)-1H-pyrazol-1-yl)pyrimidin-5-yl)benzoic acid]  100%
29. O=C(O)c1cncc(-c2cnc(Nc3cccc(Cl)c3)nc2-n2ccc(C(F)(F)F)n2)c1 [Ex 745, 5-{2-[(3-chlorophenyl)amino]-4-[3-(trifluoromethyl)-1H-pyrazol-1-yl]pyrimidin-5-yl}pyridine-3-carboxylic acid]  100%
30. O=C(O)c1cncc(-c2cnc(Nc3ccc4c(c3)OCO4)nc2-n2ccc(C(F)(F)F)n2)c1 [Example 670, 5-{2-(1,3-benzodioxol-5-ylamino)-4-[3-(trifluoromethyl)-1H-pyrazol-1-yl]pyrimidin-5-yl}pyridine-3-carboxylic acid]  100%
31. O=C(O)c1cc(-c2cnc(Nc3ccc(F)c(Cl)c3)nc2-n2ccc(C(F)(F)F)n2)cnc1OCCN1CCOCC1 [Example 1140, 5-(2-(3-chloro-4-fluorophenylamino)-4-(3-(trifluoromethyl)-1H-pyrazol-1-yl)pyrimidin-5-yl)-2-(2-morpholinoethoxy)nicotinic acid]  100%
